Patent publication US20250034171A1, “IMIDAZOPYRIDINE AMIDES AND RELATED COMPOUNDS FOR USE IN THE TREATMENT OF BACTERIAL INFECTIONS” (priority 2021, published 2025)
Values after ≈ are worked out from the molar mass of the structure shown. Where two headings read alike, the source gives them in different places.

Test system: Mycobacterium tuberculosis strain H37Rv
Assay: Test 2: MIC determination against M. tuberculosis, resazurin fluorescence
Format: cell-based
Conditions: Test 2, M. tuberculosis H37Rv; for MIC90: read-out: Bacterial activity MIC90; for IC50: read-out: Bacterial activity pMIC50 (converted)
[1] = Mycobacterium tuberculosis, H37RV

Structure (SMILES) | Bacterial activity pMIC50 | MIC90 [µM] | MIC90 [1] [µM] | IC50 [1] [pM]
CCc1nc2ncc(C)cn2c1C(=O)NCc1ccc(-c2cn3c(n2)CC(C(F)F)CC3)cc1 (stereo not drawn) [Compound 147] | 7.82 | 0.05 (≈ 0.0232 µg/mL) |  | 
CCc1nc2ncc(C)cn2c1C(=O)NCc1ccc(-c2nc3n(n2)CCCC3)c(C)n1 [Compound 148] |  |  | > 0.5 | 331000
CCc1nc2ncccn2c1C(=O)NCc1ccc(-c2nc3n(n2)CCC(C)C3)cc1 (stereo not drawn) [Compound 149] |  |  | > 0.5 | 229000
[2H]C([2H])([2H])c1cnc2nc(CC)c(C(=O)NCc3ccc(-c4nc5n(n4)CC[C@@H](C)C5)cc3)n2c1 [Compound 150] |  |  | 0.03 (≈ 0.013 µg/mL) | 10000
CCc1nc2ccc(C(F)(F)F)cn2c1C(=O)NCc1ccc(-c2cn3c(n2)C[C@@H](C(F)(F)F)CC3)cc1 [Compound 153] |  |  | > 0.5 | > 501000
CCc1nc2ccc(C(F)(F)F)cn2c1C(=O)NCc1ccc(-c2cn3c(n2)C[C@H](C(F)(F)F)CC3)cc1 [Compound 154] |  |  | > 0.5 | > 501000
CCc1nc2ncc(C(F)(F)F)cn2c1C(=O)NCc1ccc(-c2nc3n(n2)CC[C@@H](C)C3)cc1 [Compound 155] |  |  | > 0.5 | > 501000
CCc1nc2ncccn2c1C(=O)NCc1ccc(-c2nc3n(n2)CC[C@@H](C)C3)cc1 [Compound 156] |  |  | > 0.5 | 191000
CCc1nc2ncccn2c1C(=O)NCc1ccc(-c2nc3n(n2)CC[C@H](C)C3)cc1 [Compound 157] |  |  | 0.41 (≈ 0.17 µg/mL) | 126000
CCc1nc2ncccn2c1C(=O)NCc1ccc(-c2cn3c(n2)C[C@H](C(F)(F)F)CC3)cc1 [Compound 158] |  |  | 0.29 (≈ 0.136 µg/mL) | 75900
CCc1nc2ccccn2c1C(=O)NCc1ccc(-c2nc3n(n2)CC[C@H](C)C3)cc1 [Compound 159] |  |  | 0.037 (≈ 0.0153 µg/mL) | 11000
CCc1nc2n(c1C(=O)NCc1ccc(-c3nc4n(n3)CC[C@H](C)C4)cc1)CCCC2 [Compound 160] |  |  | 0.088 (≈ 0.0368 µg/mL) | 35500
CCc1nc2ccccn2c1C(=O)NCc1ccc(-c2cn3c(n2)C[C@@H](C(F)(F)F)CC3)cc1 [Compound 161] |  |  | 0.056 (≈ 0.0262 µg/mL) | 18600
CCc1nc2ccccn2c1C(=O)NCc1ccc(-c2nc3n(n2)CC[C@@H](C)C3)cc1 [Compound 162] |  |  | 0.044 (≈ 0.0182 µg/mL) | 11200
CCc1nc2n(c1C(=O)NCc1ccc(-c3nc4n(n3)CC[C@@H](C)C4)cc1)CCCC2 [Compound 163] |  |  | 0.17 (≈ 0.0712 µg/mL) | 66100
CCc1nc2n(c1C(=O)NCc1ccc(-c3cn4c(n3)C[C@H](C(F)(F)F)CC4)cc1)CCCC2 [Compound 164] |  |  | 0.058 (≈ 0.0273 µg/mL) | 17000
CCc1nc2ccccn2c1C(=O)NCc1ccc(-c2cn3c(n2)C[C@H](C(F)(F)F)CC3)cc1 [Compound 165] |  |  | 0.055 (≈ 0.0257 µg/mL) | 16200
CCc1nc2ncccn2c1C(=O)NCc1ccc(-c2cn3c(n2)C[C@@H](C(F)(F)F)CC3)cc1 [Compound 166] |  |  | > 0.5 | 145000
CCc1nc2n(c1C(=O)NCc1ccc(-c3nc4n(n3)CC[C@@H](C(F)(F)F)C4)cc1)C[C@@H](OC)CC2 [Compound 167] |  |  | 0.45 (≈ 0.226 µg/mL) | 132000
CCc1nc2n(c1C(=O)NCc1ccc(-c3nc4n(n3)CC[C@H](C(F)(F)F)C4)cc1)C[C@@H](OC)CC2 [Compound 168] |  |  | 0.5 (≈ 0.251 µg/mL) | 174000
O=C(NCc1ccc(-c2nc3n(n2)CC[C@H](C(F)(F)F)C3)cc1)c1c(C(F)(F)F)nc2ncccn12 [Compound 170] |  |  | > 0.45 | > 275000
CCc1nc2ncccn2c1C(=O)NCc1ccc(-c2nc3n(n2)CC[C@@H](C(F)(F)F)C3)cc1 [Compound 171] |  |  | 0.18 (≈ 0.0845 µg/mL) | 46800
CCc1nc2ncc(C(F)(F)F)cn2c1C(=O)NCc1ccc(-c2nc3n(n2)CC[C@@H](C(F)(F)F)C3)cc1 [Compound 172] |  |  | > 0.46 | > 295000
CCc1nc2ncc(C(F)(F)F)cn2c1C(=O)NCc1ccc(-c2nc3n(n2)CC[C@H](C(F)(F)F)C3)cc1 [Compound 173] | <6.49 | >0.47 |  | 
CCc1nc2ncc(Cl)cn2c1C(=O)NCc1ccc(-c2cn3c(n2)C[C@H](C(F)(F)F)CC3)cc1 [Compound 175] |  |  | 0.059 (≈ 0.0297 µg/mL) | 21900
CCc1nc2ncc(Cl)cn2c1C(=O)NCc1ccc(-c2cn3c(n2)C[C@@H](C(F)(F)F)CC3)cc1 [Compound 176] |  |  | 0.039 (≈ 0.0196 µg/mL) | 12600
CCc1nc2ncccn2c1C(=O)NCc1ccc(-c2nc3n(n2)C[C@@H](C(F)(F)F)CC3)cc1 [Compound 181] |  |  | 0.22 (≈ 0.103 µg/mL) | 57500
CCc1nc2ncccn2c1C(=O)NCc1ccc(-c2nc3n(n2)C[C@H](C(F)(F)F)CC3)cc1 [Compound 182] |  |  | 0.2 (≈ 0.0939 µg/mL) | 52500
CCc1nc2n(c1C(=O)NCc1ccc(-c3cn4c(n3)CC(C(F)(F)F)CC4)c(F)c1)CCCC2 (stereo not drawn) [Compound 185] |  |  | 0.034 (≈ 0.0166 µg/mL) | 9770
CCc1nc2ncccn2c1C(=O)NCc1ccc(-c2cc3n(n2)CCCC3)cc1 [Compound 187] |  |  | > 0.5 | 151000
